Earlier results as cited in US11464838B2, “Optimized cancer stem cell vaccines” (COLORADO STATE UNIVERSITY RESEARCH FOUNDATION, priority 2015, dated 2022).

Details: in vivo

Row | Compound | Bioavailability [%] | Biological Half-Life [hours]
1 | CCOc1nc2cccc(C(=O)O)c2n1Cc1ccc(-c2ccccc2-c2noc(=O)[nH]2)cc1 [Azilsartan] | 60 | 11
2 | CCCCc1ncc(/C=C(\Cc2cccs2)C(=O)O)n1Cc1ccc(C(=O)O)cc1 [Eprosartan] | 13 | 5
3 | CCCCC1=NC2(CCCC2)C(=O)N1Cc1ccc(-c2ccccc2-c2nnn[nH]2)cc1 [Irbesartan] | 70 | –
4 | CCCCc1nc(Cl)c(CO)n1Cc1ccc(-c2ccccc2-c2nn[nH]n2)cc1 [Losartan] | – | 2
